Article doi:10.1101/2023.03.24.534094v2 (biorxiv, 2023)
Where two headings read alike, the source gives them in different places. Values belong to the compound of their own block, whether it stands above or below them.

How the values were obtained:
Experiment in all cases: biochemical
JNK2 = JNK2 (Homo sapiens, UniProt P45984)
p38a = p38a (Homo sapiens, UniProt Q16539)
SRPK1 = SRPK1 (Homo sapiens, UniProt Q96SB4)
FECH = target: T1, FECH (Homo sapiens, UniProt P22830)
T1 sequence (P22830 1-423): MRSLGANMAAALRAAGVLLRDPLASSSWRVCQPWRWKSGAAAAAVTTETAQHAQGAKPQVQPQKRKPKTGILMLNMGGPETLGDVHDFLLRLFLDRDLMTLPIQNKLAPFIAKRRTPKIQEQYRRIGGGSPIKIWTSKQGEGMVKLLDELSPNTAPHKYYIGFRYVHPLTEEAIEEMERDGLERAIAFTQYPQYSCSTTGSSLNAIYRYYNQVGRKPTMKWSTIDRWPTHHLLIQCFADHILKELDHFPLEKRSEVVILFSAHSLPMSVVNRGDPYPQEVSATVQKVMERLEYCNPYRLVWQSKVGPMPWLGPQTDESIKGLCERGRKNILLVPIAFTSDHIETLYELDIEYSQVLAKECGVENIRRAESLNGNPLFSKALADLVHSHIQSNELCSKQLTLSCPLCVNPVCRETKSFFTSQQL

Haspin = target: T2, Haspin (Homo sapiens, UniProt Q8TF76)
T2 sequence (Q8TF76 1-798): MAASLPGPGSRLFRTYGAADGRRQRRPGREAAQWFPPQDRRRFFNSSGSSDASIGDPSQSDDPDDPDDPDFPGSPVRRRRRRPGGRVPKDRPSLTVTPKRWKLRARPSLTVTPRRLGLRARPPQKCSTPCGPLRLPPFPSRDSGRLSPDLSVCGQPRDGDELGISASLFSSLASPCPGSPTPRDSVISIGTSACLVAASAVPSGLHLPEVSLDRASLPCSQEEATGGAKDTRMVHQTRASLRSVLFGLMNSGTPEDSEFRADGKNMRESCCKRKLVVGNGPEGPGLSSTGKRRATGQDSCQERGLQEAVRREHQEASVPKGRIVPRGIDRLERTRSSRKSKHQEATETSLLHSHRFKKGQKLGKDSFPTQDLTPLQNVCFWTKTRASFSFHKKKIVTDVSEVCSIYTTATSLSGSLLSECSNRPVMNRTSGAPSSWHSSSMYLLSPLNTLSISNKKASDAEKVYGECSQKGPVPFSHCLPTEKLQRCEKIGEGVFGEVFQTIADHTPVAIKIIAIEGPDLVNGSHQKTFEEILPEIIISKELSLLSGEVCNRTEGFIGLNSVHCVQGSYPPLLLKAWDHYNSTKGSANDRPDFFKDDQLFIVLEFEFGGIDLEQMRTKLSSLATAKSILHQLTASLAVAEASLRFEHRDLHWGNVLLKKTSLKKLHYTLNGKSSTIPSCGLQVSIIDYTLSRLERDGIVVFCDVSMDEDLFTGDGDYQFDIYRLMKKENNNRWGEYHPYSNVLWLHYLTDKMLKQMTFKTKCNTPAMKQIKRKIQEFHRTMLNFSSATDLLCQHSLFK

CaMKK2 = CaMKK2 (Homo sapiens, UniProt Q96RR4)
MER = target: T3, MER (Homo sapiens, UniProt Q12866)
T3 sequence (Q12866 1-999): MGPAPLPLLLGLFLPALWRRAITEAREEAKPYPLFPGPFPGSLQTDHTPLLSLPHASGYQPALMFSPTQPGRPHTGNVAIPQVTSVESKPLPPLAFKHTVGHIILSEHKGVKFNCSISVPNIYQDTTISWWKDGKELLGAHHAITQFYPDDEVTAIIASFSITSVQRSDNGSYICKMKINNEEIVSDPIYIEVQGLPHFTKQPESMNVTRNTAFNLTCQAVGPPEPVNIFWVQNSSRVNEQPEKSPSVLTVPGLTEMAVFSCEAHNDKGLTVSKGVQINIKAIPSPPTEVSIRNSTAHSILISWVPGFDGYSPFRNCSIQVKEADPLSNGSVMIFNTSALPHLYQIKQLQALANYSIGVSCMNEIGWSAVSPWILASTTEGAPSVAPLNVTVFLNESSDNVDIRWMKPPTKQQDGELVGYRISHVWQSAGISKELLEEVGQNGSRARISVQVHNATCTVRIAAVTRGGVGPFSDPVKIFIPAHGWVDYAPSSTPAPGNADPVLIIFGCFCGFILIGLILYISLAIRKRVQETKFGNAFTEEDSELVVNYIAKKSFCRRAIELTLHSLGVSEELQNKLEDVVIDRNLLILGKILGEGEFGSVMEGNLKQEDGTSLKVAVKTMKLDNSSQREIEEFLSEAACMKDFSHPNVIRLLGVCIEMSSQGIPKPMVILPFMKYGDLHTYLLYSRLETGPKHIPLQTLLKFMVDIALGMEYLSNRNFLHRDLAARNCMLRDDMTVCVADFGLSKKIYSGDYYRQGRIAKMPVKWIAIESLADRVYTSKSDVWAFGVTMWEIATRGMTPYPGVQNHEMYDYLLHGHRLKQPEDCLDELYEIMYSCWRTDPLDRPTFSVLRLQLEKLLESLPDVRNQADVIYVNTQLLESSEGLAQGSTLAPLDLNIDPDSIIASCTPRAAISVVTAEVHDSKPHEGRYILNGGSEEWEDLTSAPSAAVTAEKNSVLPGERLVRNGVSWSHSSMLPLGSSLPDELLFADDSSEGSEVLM

Sequence of CaMKK2 (Q96RR4 whole entry): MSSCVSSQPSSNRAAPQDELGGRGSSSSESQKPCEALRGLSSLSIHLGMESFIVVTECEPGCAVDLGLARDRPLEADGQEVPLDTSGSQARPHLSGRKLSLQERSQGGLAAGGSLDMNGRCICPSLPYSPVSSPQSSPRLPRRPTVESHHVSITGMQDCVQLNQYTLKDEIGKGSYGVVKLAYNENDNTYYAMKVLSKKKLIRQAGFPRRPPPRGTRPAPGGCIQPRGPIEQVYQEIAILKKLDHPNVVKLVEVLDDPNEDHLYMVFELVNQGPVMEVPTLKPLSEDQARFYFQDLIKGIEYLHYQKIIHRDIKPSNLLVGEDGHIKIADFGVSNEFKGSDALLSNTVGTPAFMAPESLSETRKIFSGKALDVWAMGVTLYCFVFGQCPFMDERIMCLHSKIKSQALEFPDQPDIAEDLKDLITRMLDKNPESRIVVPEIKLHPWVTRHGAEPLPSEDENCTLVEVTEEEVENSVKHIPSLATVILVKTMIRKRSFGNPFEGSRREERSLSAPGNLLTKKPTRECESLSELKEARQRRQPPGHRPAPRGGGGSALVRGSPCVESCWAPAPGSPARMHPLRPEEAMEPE
Sequence of p38a (Q16539 whole entry): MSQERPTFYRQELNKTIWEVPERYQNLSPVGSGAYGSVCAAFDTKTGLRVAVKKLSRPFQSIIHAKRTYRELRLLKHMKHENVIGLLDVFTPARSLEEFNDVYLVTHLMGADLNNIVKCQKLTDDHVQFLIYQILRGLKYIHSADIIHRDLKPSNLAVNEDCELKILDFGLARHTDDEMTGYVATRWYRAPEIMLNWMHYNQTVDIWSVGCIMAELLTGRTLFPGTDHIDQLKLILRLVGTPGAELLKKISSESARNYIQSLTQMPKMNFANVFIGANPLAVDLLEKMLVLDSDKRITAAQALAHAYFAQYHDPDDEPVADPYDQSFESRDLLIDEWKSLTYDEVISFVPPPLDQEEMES
Sequence of SRPK1 (Q96SB4 whole entry): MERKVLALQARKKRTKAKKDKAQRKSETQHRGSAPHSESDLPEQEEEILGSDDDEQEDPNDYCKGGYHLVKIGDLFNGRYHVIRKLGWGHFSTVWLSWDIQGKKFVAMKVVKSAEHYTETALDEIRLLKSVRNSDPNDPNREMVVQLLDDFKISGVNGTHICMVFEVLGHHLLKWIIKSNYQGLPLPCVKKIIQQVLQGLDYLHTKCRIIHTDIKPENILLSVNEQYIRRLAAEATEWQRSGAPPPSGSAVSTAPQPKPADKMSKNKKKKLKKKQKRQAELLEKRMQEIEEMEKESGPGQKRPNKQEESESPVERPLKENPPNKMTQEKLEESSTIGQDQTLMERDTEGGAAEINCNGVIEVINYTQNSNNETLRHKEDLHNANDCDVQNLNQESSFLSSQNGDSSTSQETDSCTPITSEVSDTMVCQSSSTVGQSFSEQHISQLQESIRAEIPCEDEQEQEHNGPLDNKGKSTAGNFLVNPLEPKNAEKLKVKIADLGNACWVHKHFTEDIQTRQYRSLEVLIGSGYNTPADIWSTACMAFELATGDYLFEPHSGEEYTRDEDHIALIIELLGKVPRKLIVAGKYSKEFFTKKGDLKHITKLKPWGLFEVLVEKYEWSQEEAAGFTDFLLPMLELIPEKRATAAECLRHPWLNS
Sequence of JNK2 (P45984 whole entry): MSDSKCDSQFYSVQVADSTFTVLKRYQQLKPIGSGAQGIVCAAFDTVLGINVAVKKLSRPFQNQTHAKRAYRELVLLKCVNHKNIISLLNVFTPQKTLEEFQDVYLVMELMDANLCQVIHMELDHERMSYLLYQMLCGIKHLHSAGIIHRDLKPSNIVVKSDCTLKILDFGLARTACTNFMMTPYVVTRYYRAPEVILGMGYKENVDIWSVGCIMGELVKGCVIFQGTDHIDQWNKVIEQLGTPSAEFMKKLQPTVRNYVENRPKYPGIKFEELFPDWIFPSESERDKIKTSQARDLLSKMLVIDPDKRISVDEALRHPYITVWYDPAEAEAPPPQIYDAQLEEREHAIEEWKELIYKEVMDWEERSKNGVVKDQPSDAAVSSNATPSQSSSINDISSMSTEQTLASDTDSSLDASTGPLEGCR

ΔTm at 10 µM (JNK2; read-out: dTm 9): 1 °C
ΔTm at 10 µM (p38a; read-out: dTm 9): 4.2 °C
ΔTm at 10 µM (SRPK1; read-out: dTm 9): 0.1 °C
ΔTm at 10 µM (FECH; read-out: dTm 9): -1.7 °C
ΔTm at 10 µM (Haspin; read-out: dTm 9): 0.1 °C
ΔTm at 10 µM (CaMKK2; read-out: dTm 9): 0.4 °C
ΔTm at 10 µM (MER; read-out: dTm 9): 0.2 °C
Structure (SMILES): CNc1ncc2cc(-c3cc(C(F)(F)F)ccc3Cl)c(=O)n(CCCCN)c2n1 [compound 9, 8-(4-Aminobutyl)-6-(2-chloro-5-(trifluoromethyl)phenyl)-2-(methylamino)pyrido[2,3-d]pyrimidin-7(8H)-one]

ΔTm at 10 µM (JNK2; read-out: dTm 11): 1.2 °C
ΔTm at 10 µM (p38a; read-out: dTm 11): 6.4 °C
ΔTm at 10 µM (SRPK1; read-out: dTm 11): 0.2 °C
ΔTm at 10 µM (FECH; read-out: dTm 11): -1.6 °C
ΔTm at 10 µM (Haspin; read-out: dTm 11): 0.7 °C
ΔTm at 10 µM (CaMKK2; read-out: dTm 11): 0.6 °C
ΔTm at 10 µM (MER; read-out: dTm 11): 0.6 °C
Structure (SMILES): CNc1ncc2cc(-c3cc(Br)ccc3Br)c(=O)n(CCCCN)c2n1 [compound 11, 8-(4-Aminobutyl)-6-(2,5-dibromophenyl)-2-(methylamino)pyrido[2,3-d]pyrimidin-7(8H)-one]

ΔTm at 10 µM (JNK2; read-out: dTm 8): 1.2 °C
ΔTm at 10 µM (p38a; read-out: dTm 8): 6 °C
ΔTm at 10 µM (SRPK1; read-out: dTm 8): 0.3 °C
ΔTm at 10 µM (FECH; read-out: dTm 8): -1.7 °C
ΔTm at 10 µM (Haspin; read-out: dTm 8): 0.6 °C
ΔTm at 10 µM (CaMKK2; read-out: dTm 8): 0.6 °C
ΔTm at 10 µM (MER; read-out: dTm 8): 0.5 °C
Structure (SMILES): CNc1ncc2cc(-c3cc(Cl)ccc3Cl)c(=O)n(CCCCN)c2n1 [compound 8, 8-(4-Aminobutyl)-6-(2,5-dichlorophenyl)-2-(methylamino)pyrido[2,3-d]pyrimidin-7(8H)-one]

ΔTm at 10 µM (JNK2; read-out: dTm 12): 0.2 °C
ΔTm at 10 µM (p38a; read-out: dTm 12): 0.4 °C
ΔTm at 10 µM (SRPK1; read-out: dTm 12): 0 °C
ΔTm at 10 µM (FECH; read-out: dTm 12): -0.6 °C
ΔTm at 10 µM (Haspin; read-out: dTm 12): -0.4 °C
ΔTm at 10 µM (CaMKK2; read-out: dTm 12): 0 °C
ΔTm at 10 µM (MER; read-out: dTm 12): 1.1 °C
Structure (SMILES): CNc1ncc2cc(-c3cc(F)c(-c4cccc(C)n4)cc3F)c(=O)n(CCCCN)c2n1 [compound 12, 8-(4-Aminobutyl)-6-(2,5-difluoro-4-(6-methylpyridin-2-yl)phenyl)-2-(methylamino)pyrido[2,3-d]pyrimidin-7(8H)-one]

ΔTm at 10 µM (JNK2; read-out: dTm 10): 0.9 °C
ΔTm at 10 µM (p38a; read-out: dTm 10): 6.1 °C
ΔTm at 10 µM (SRPK1; read-out: dTm 10): 0.2 °C
ΔTm at 10 µM (FECH; read-out: dTm 10): -1.7 °C
ΔTm at 10 µM (Haspin; read-out: dTm 10): 0.6 °C
ΔTm at 10 µM (CaMKK2; read-out: dTm 10): 0.7 °C
ΔTm at 10 µM (MER; read-out: dTm 10): 0.7 °C
Structure (SMILES): CNc1ncc2cc(-c3cc(Cl)ccc3Br)c(=O)n(CCCCN)c2n1 [compound 10, 8-(4-Aminobutyl)-6-(2-bromo-5-chlorophenyl)-2-(methylamino)pyrido[2,3-d]pyrimidin-7(8H)-one]
